Results reported in US20080119488A1, “Modulators Of Nuclear Receptors” (EXELIXIS, INC., priority 2004, published 2008).

Biological target: T1, LXRα or LXRβ
T1 construct: fused on or other part: N-terminal poly-His tag from the pBacPakhis1 vector
Test: Saturation binding of [3H] 24,25 epoxycholesterol (EC) to the receptor
Parameters: species or system human
Settings: as determined by saturation binding; typical value used for the Cheng and Prusoff equation
Method: The SPA assay measures the radioactive signal generated by the binding of ^3H-24,25-epoxycholesterol to LXRα or LXRβ. The basis of the assay is the use of SPA beads containing a scintillant, such that when binding to the receptor brings the labeled ligand into proximity with the bead, the energy from the label stimulates the scintillant to emit light. The light is measured using a standard microplate scintillation reader. The ability of a ligand to bind to a receptor can be measured by assessing the degree to which the compound can compete off a radiolabelled ligand with known affinity for the receptor.
For this assay, typically the Concentration of Ligand=50 nM and the Kd of EC for the receptor is 200 nM as determined by saturation binding.

Work on C[C@H](CCC1OC1(C)C)[C@H]1CC[C@H]2[C@@H]3CC=C4C[C@@H](O)CC[C@]4(C)[C@H]3CC[C@]12C (stereo partly shown) [EC, 24,25 Epoxycholesterol] yielded a Kd of 200 nM.
